Laboratory results: patent EP0973516B1, “USE OF HALO AND/OR NITRO-SUBSTITUTED FLAVONOIDS AS ANXYOLITICS” (University of Strathclyde, priority 1997, dated 1998)
Where two headings read alike, the source gives them in different places.

Molecular target: Benzodiazepine receptors (BDZ-Rs)
Assay: Inhibition of 3H-flunitrazepam (3H-FNZ) binding to washed rat cerebral cortical membranes
Method: Adult male Wistar rats weighing 250g were used for biochemical experiments.
Membrane preparations were carried out according to Medina et al. (1990). Briefly, brains were rapidly dissected out on ice and the different structures were homogenized in 10 volumes of 0.32 M sucrose and centrifuged at 900 x g for 10 min. The resulting supernatant was centrifuged at 100,000 x g for 30 min and the pellet washed twice in 25mM Tris HCl buffer pH 7.4 at 100,000 x g for 30 min,and stored at-20°C until used.
Binding affinities to BDZ-Rs were determined by the ability of the compounds to inhibit Hoffman-La Roche ^3H-flunitrazepam (^3H-FNZ) binding to extensively washed rat cerebal cortical membranes following the method as described by Levi de Stein, M. et al., Mol. Brain Res (1989),5, pp 9-15.
In brief, for each assay, triplicate samples of the membranes, containing 0.2 to 0.4 mg protein were suspended in a final volume of 1 ml of 0.25 mM Tris-HCl buffer, pH 7.3.
The incubation was carried out at 4°C for 60 min with 0.5 nM ^3H-FNZ. To study the binding saturation, a range of 0.3 to 10 nM ^3H-FNZ was used. Non-specific binding was determined in parallel incubations in the presence of 3µM FNZ, and represented 5-15% of total. The assays were terminated by filtration under vacuum through Whatman GF/A glass-fiber filters, and three washes with 3mL each of incubation medium. Filters were dried and counted after the addition of 5 mL of 2,5-diphenyloxazole/xylene as scintillation fluid.
The competition curves were analyzed using Graph-Pad Prism software.
Figures 1-5 show representative displacement curves of [^3H] flunitrazepam (0.5 nM) binding by different flavones to washed crude synaptosomal membranes from rat cerebral cortex.

[1] = Rat Cerebral Cortex membranes, 0.5 nM 3H-FNZ, means of 3-5 independent determinations, read-out: Ki^b
[2] = mean ± SEM from displacement curves of [3H] flunitrazepam binding to rat synaptosomal membranes, read-out: Ki
[3] = single representative displacement curve (Figures 1-5), [3H] flunitrazepam 0.5 nM, washed crude synaptosomal membranes from rat cerebral cortex, read-out: Ki

Row | SMILES | Ki [1] | Ki [2] | Ki [3]
1 | O=c1cc(-c2ccccc2)oc2ccc([N+](=O)[O-])cc12 [Compound A1, 6-nitroflavone] | 275 nM | 275 ± 41.1 nM | 315 nM
2 | O=c1cc(-c2cccc(Cl)c2)oc2ccccc12 [Compound A2, 3'-chloroflavone] | 614 nM | 614 ± 32.7 nM | 665 nM
3 | O=c1cc(-c2ccccc2)oc2ccccc12 [Flavone 6, Flavone, reference compound] | 1000 nM |  | 
4 | O=c1cc(-c2cccc(Br)c2)oc2ccc(Br)cc12 [Compound A4, 6,3'-dibromoflavone] | 19 nM | 18.6 ± 2.18 nM | 22.7 nM
5 | O=c1cc(-c2cccc(Br)c2)oc2ccc([N+](=O)[O-])cc12 [Compound A5, 6-nitro-3'-bromoflavone] | 25 nM | 25.2 ± 2.46 nM | 21.8 nM
6 | O=c1cc(-c2cccc(Br)c2)oc2ccccc12 [Compound A3, 3'-bromoflavone] | 413 nM | 414 ± 46 nM | 427 nM
